Measured values reported in PMC2009384, “The carcinogenicity of polycyclic hydrocarbon epoxides in newborn mice” (British Journal of Cancer, 1975).

Key:
newborn Swiss mice = test: Experiment I: carcinogenicity in newborn mice, benz(a)anthracene vs its K region epoxide (s.c. injection, tumour incidence to 70-75 weeks)
Excerpt: Br. J. Cancer (1975) 31, 182 THE CARCINOGENICITY OF POLYCYCLIC HYDROCARBON EPOXIDES IN NEWBORN MICE P. L. GROVER, P. SIMS, B. C. V. MITCHLEY AND F. J. C. ROE From the Chester Beatty Research Institute, Institute of Cancer Research, Royal Cancer Hospital, Fulham Road, London, SW3 6JB Received 9 August 1974. […] THE HYPOTHESIS that the carcino- genicity of polycyclic hydrocarbons is associated with the formation of epoxide metabolites (Grover, Hewer and Sims, 1971, 1972; Keysell et al., 1973) is sup- ported by some experimental evidence but remains unproven. […] The epoxides can also act as alkylating agents (Grover and Sims, 1970) and as mutagens (Ames, Sims and Grover, 1972; Huberman et al., 1971; Cookson, Sims and Grover, 1971; Fahmy and Fahmy, 1973). […] The newborn mouse, which is susceptible to carcinogenic polycyclic hydrocarbons (Roe, Rowson and Salaman, 1961; Roe, Mitchley and Walters, 1963; Walters and Roe, 1964, 1966) can be considered as a convenient source of several types of rapidly dividing cells. Consequently we have tested the K region epoxides derived from phenanthrene, benz(a)anthracene, 7-methylbenz(a)anthracene, dibenz(a,h)- anthracene, chrysene and 3-methylchol- anthrene, together with some of the CARCINOGENICITY OF POLYCYCLIC HYDROCARBON EPOXIDES IN MICE 183 parent hydrocarbons, for carcinogenicity using newborn mice. This paper presents the results that were obtained in these experiments. MATERIALS AND METHODS The polycyclic hydrocarbon epoxides, phenanthrene 9,10-oxide, benz(a)anthracene 5,6-oxide, 7-methylbenz(a)anthracene 5,6- oxide, dibenz(a,h)anthracene 5,6-oxide, chry- sene 5,6-oxide and 3-methylcholanthrene 11,12-oxide were prepared from the parent hydrocarbons (Newman and Blum, 1964; Boyland and Sims, 1965; Sims 1966). Two experiments were undertaken fol- lowing similar protocols. For each experi- ment Swiss mice from a specific pathogen- free colony were time mated so as to produce a large number of litters over the course of 2 or 3 days. […] Test compounds were suspended in poly- ethylene glycol (PEG) 400 and injections of 0-02 ml of the suspension were given by introducing a 25 gauge hypodermic needle through the skin near the root of the tail and threading it subcutaneously to deliver the injected material in the interscapular region. Injections were given to every mouse on the first day or first 3 days of life. The details of treatments and numbers of mice of each sex in each group are shown in Table I (Experiment I) and Table II (Ex- periment II). Surviving mice were weaned when they w ere 21 days old. Thereafter, males and females w ere separated and housed 6 per cage in metal boxes. A mixture of sawdust and wood shavings was used as bedding. The mice were fed on a standard cubed diet (Formulation 86 from C. Holdman and Sons (Plow co Feeds), Byers Lane, South Godstone, Surrey) and water was given ad libitum. Mice were inspected daily, and at weekly intervals they were weighed and palpated for tumours and other lesions. […] The experiment was terminated when surviving mice were between 70 and 75 weeks old. A full routine post- mortem examination, which included disten- sion of the urinary bladder with fixative, was carried out. The number of lesions thought to be neoplasms and the size of the largest such lesion in each organ affected were recorded. All tissues with suspected neoplasms were fixed in Bouin's solution. Haematoxylin and eosin stained 5 µm paraffin wax sections were prepared and examined microscopically. RESULTS The results of the two experiments in terms of tumour incidence are sum- marized in […].

newborn mice = settings: ref Roe and Walters, 1967; cited from earlier work
[1] = Groups A, B and C, 3 x 200, 100, 50 µg s.c.
[2] = females, 50 µg per treatment s.c. on Days 0, 1 and 2
[3] = females, 50 µg per treatment s.c. on Days 0, 1 and 2 in PEG 400
[4] = females, 100 µg per treatment s.c. on Days 0, 1 and 2
[5] = females, 100 µg per treatment s.c. on Days 0, 1 and 2 in PEG 400
[6] = females, 200 µg per treatment s.c. on Days 0, 1 and 2
[7] = females, 200 µg per treatment s.c. on Days 0, 1 and 2 in PEG 400
[8] = males, 50 µg per treatment s.c. on Days 0, 1 and 2
[9] = males, 50 µg per treatment s.c. on Days 0, 1 and 2 in PEG 400
[10] = males, 100 µg per treatment s.c. on Days 0, 1 and 2
[11] = males, 100 µg per treatment s.c. on Days 0, 1 and 2 in PEG 400
[12] = males, 200 µg per treatment s.c. on Days 0, 1 and 2
[13] = males, 200 µg per treatment s.c. on Days 0, 1 and 2 in PEG 400

## c1ccc2cc3c(ccc4ccccc43)cc2c1 [Benz(a)anthracene, reference compound]
Newborn Swiss mice; [1]
  effect on the incidence of liver tumours in male mice: dose related effect
  effect on the incidence of lung tumours in mice of both sexes: dose related effect
Newborn Swiss mice; [2]
  No. of mice examined at p.m. at termination of experiment (70th-75th week) with liver tumours: 2
  No. of mice examined at p.m. at termination of experiment (70th-75th week) with lung tumours: 7
  No. of mice examined at p.m. at termination of experiment (70th-75th week) with multiple liver tumours: 1
  No. of mice examined at p.m. at termination of experiment (70th-75th week) with multiple lung tumours: 3
  No. of mice examined at p.m. at termination of experiment (70th-75th week) with other tumours: 0
  No. of mice examined at p.m. from 50th-70th week with liver tumours: 0
  No. of mice examined at p.m. from 50th-70th week with lung tumours: 1
  No. of mice examined at p.m. from 50th-70th week with other tumours: 0
Newborn Swiss mice; [3]
  No. of survivors at 50 weeks: 25
  No. of survivors at 70 weeks: 21
Newborn Swiss mice; [4]
  No. of mice examined at p.m. at termination of experiment (70th-75th week) with liver tumours: 0
  No. of mice examined at p.m. at termination of experiment (70th-75th week) with lung tumours: 5
  No. of mice examined at p.m. at termination of experiment (70th-75th week) with multiple liver tumours: 0
  No. of mice examined at p.m. at termination of experiment (70th-75th week) with multiple lung tumours: 2
  No. of mice examined at p.m. at termination of experiment (70th-75th week) with other tumours: 0
  No. of mice examined at p.m. from 50th-70th week with liver tumours: 0
  No. of mice examined at p.m. from 50th-70th week with lung tumours: 2
  No. of mice examined at p.m. from 50th-70th week with other tumours: 0
Newborn Swiss mice; [5]
  No. of survivors at 50 weeks: 17
  No. of survivors at 70 weeks: 13
Newborn Swiss mice; [6]
  No. of mice examined at p.m. at termination of experiment (70th-75th week) with liver tumours: 2
  No. of mice examined at p.m. at termination of experiment (70th-75th week) with lung tumours: 10
  No. of mice examined at p.m. at termination of experiment (70th-75th week) with multiple liver tumours: 1
  No. of mice examined at p.m. at termination of experiment (70th-75th week) with multiple lung tumours: 10
  No. of mice examined at p.m. at termination of experiment (70th-75th week) with other tumours: 1
  No. of mice examined at p.m. from 50th-70th week with liver tumours: 0
  No. of mice examined at p.m. from 50th-70th week with lung tumours: 0
  No. of mice examined at p.m. from 50th-70th week with other tumours: 0
Newborn Swiss mice; [7]
  No. of survivors at 50 weeks: 18
  No. of survivors at 70 weeks: 18
Newborn Swiss mice; [8]
  No. of mice examined at p.m. at termination of experiment (70th-75th week) with liver tumours: 9
  No. of mice examined at p.m. at termination of experiment (70th-75th week) with lung tumours: 5
  No. of mice examined at p.m. at termination of experiment (70th-75th week) with multiple liver tumours: 5
  No. of mice examined at p.m. at termination of experiment (70th-75th week) with multiple lung tumours: 2
  No. of mice examined at p.m. at termination of experiment (70th-75th week) with other tumours: 0
  No. of mice examined at p.m. from 50th-70th week with liver tumours: 3
  No. of mice examined at p.m. from 50th-70th week with lung tumours: 1
  No. of mice examined at p.m. from 50th-70th week with other tumours: 0
Newborn Swiss mice; [9]
  No. of survivors at 50 weeks: 29
  No. of survivors at 70 weeks: 25
Newborn Swiss mice; [10]
  No. of mice examined at p.m. at termination of experiment (70th-75th week) with liver tumours: 15
  No. of mice examined at p.m. at termination of experiment (70th-75th week) with lung tumours: 5
  No. of mice examined at p.m. at termination of experiment (70th-75th week) with multiple liver tumours: 11
  No. of mice examined at p.m. at termination of experiment (70th-75th week) with multiple lung tumours: 3
  No. of mice examined at p.m. at termination of experiment (70th-75th week) with other tumours: 1
  No. of mice examined at p.m. from 50th-70th week with liver tumours: 4
  No. of mice examined at p.m. from 50th-70th week with lung tumours: 1
  No. of mice examined at p.m. from 50th-70th week with other tumours: 0
Newborn Swiss mice; [11]
  No. of survivors at 50 weeks: 25
  No. of survivors at 70 weeks: 19
Newborn Swiss mice; [12]
  No. of mice examined at p.m. at termination of experiment (70th-75th week) with liver tumours: 15
  No. of mice examined at p.m. at termination of experiment (70th-75th week) with lung tumours: 4
  No. of mice examined at p.m. at termination of experiment (70th-75th week) with multiple liver tumours: 15
  No. of mice examined at p.m. at termination of experiment (70th-75th week) with multiple lung tumours: 4
  No. of mice examined at p.m. at termination of experiment (70th-75th week) with other tumours: 0
  No. of mice examined at p.m. from 50th-70th week with liver tumours: 1
  No. of mice examined at p.m. from 50th-70th week with lung tumours: 1
  No. of mice examined at p.m. from 50th-70th week with other tumours: 0
Newborn Swiss mice; [13]
  No. of survivors at 50 weeks: 18
  No. of survivors at 70 weeks: 15

## c1ccc2c(c1)ccc1ccccc12 [phenanthrene]
Newborn mice
  activity in newborn mice: inactive
